# Source: US9675638B2, “Use of tungsten (VI) salts for the treatment of female infertility in non-diabetic mammals” (OXOLIFE, S.L., priority 2013, dated 2017)
# Where “and” joins values, the source holds several entries; their conditions need not be identical. Equal values may be shown once. Where a name gives a salt, the structure may show the parent alone.
# How the values were obtained:
# [1] = test system: women whose ovulation is irregular or absent; settings: cited from earlier work
# Body weight study = format: in vivo, mouse; settings: for Body weight, Average: average of 6 IRS2−/− female mice; for variation in body weight during administration: first 12 days of treatment, IRS2−/− female mice; for variation in body weight during administration / Body weight: dihydrate; for Body weight: individual IRS2−/− female mice
# Protocol: (§1) 6 IRS2^−/− female mice of ages comprised between 6 and 8 weeks.
# (§2) The female mice were housed in normal conditions, i.e., 12-hour light/darkness cycle and controlled moisture and temperature. The animals were voluntarily fed (also named ad libitum) with a standard feed diet.
# (§3) After a period of acclimation, sodium tungstate was administered in the drinking water (ad libitum) by means of a 2 mg/ml solution of sodium tungstate dihydrate (marketed by Carlo Erba) in distilled water after the pre-treatment phase (day 0 of treatment) and for 12 days.
# (§4) Body weight was monitored on day 0, 2, 5, 7, 9 and 12 of the treatment period, and after 6 hours of fasting on each of the aforementioned days blood glucose was determined by means of withdrawing blood from the tail vein and with a glucose sensor (Roche AccuTrend Glucose Sensor. Mannheim, Germany).
# IRS2−/− female mice [2] = experiment: Ovulation study: phase of the estrous cycle by vaginal smears (Papanicolaou); format: in vivo, mouse; set-up: key to phase of the estrous cycle: A: anestrus; D: diestrus; P: proestrus; E: estrus; M: metestrus; settings: for phase of the estrous cycle: individual IRS2−/− female mice, dihydrate
# Excerpt: (§5) 10 IRS2^−/− female mice of ages comprised between 6 and 8 weeks. 6 “wild-type” (IRS2^wt) male mice of ages comprised between 6 and 8 weeks.
# (§6) The female and male mice were housed separately in normal conditions, i.e., 12-hour light/darkness cycle and controlled moisture and temperature. The animals were voluntarily fed (also named ad libitum) with a standard feed diet.
# (§7) After a period of acclimation, the IRS2^−/− female mice were housed in groups of 4-6 mice/cage. Tungstate-free drinking water was administered to the animals during the pre-treatment phase (2 weeks).
# (§8) Sodium tungstate was administered in the drinking water (ad libitum) by means of a 2 mg/ml solution of sodium tungstate dihydrate (marketed by Carlo Erba) in distilled water after the pre-treatment phase (day 0 of treatment) and up to 4 weeks before sacrificing the animals. The daily dose of sodium tungstate ingested by the mice is about 180 mg/kg of body weight.
# During the pre-treatment period and during the first 3 weeks of treatment, vaginal smears were performed in 6 randomly chosen female mice on days −8; −5; −2; −1; 7; 8; 14; 15 and 22 to determine the phase of the estrous cycle they were in.
# Between […] of saline solution was introduced into the vagina of the mice with a Pasteur pipette. The vaginal exudate was collected with the same pipette and deposited on a slide. Once air-dried, it was fixed and stained with the Papanicolaou technique.
# The Papanicolaou technique comprises staining the vaginal smears fixed on the slide as follows: • 10 immersions in 50% v/v alcohol; • immersing in Harris hematoxylin solution for 3 minutes; • rinsing with running water; • 10 immersions in acid alcohol (1% hydrochloric acid); • rinsing with running water; • 10 immersions in 95% v/v alcohol; • immersing in OG-6 solution for 30 seconds; • 10 immersions in 96% v/v alcohol; • immersing in eosin solution for 1 minute; • 10 immersions in 96% v/v alcohol; • 10 immersions in 86% v/v alcohol; and • 10 immersions in xylol.
# The preparations were analyzed by trained staff using a code in a single-blind manner to eliminate observer bias.
# The samples were identified in the following phases: diestrus, proestrus, estrus, metestrus, anestrus or non-evaluable. The cyclicality of the four phases in periods of 4 to 6 days is an indicator of a normal estrous cycle, whereas the absence of this cyclicality and the persistence in anestrus, diestrus or proestrus phases are indicators of the absence of the estrous cycle.
# [3] = test system: female rats with streptozotocin-induced diabetes; settings: cited from earlier work
# [4] = Glycemia study (blood glucose after 6 hours of fasting, glucose sensor); format: in vivo, mouse; settings: for glycemia, Average: average of 6 IRS2−/− female mice; for variation in glycemia during administration: first 12 days of treatment, IRS2−/− female mice; for variation in glycemia during administration / glycemia: dihydrate; for glycemia: individual IRS2−/− female mice
# Protocol: as §1, §2, §3, §4
# IRS2−/− female mice [5] = experiment: Implantation and pregnancy study after mating with IRS2wt male mice; format: in vivo, mouse; settings: for mean number of young/implanted embryos per female mouse pregnancy: treated IRS2−/− female mice
# Excerpt: as §5, §6, §7, §8
# After the first three weeks of treatment, the IRS2^−/− female mice were housed in cages in pairs together with an IRS2^wt male mouse continuously.
# The mice were observed daily in search of signs of pregnancy or birth. After 4 weeks, the male mice were exchanged between the cages and kept in said cages for another 4 weeks.
# The administration of tungstate was maintained for the 8 weeks in which the male and female mice were housed together. After these 8 weeks, treatment was withdrawn and the male and female mice were housed together for 4 additional weeks.
# After this period lapsed, the female mice were sacrificed and biopsied in search of indications of pregnancy.
# After the mating period of the method in section B lapsed, the female mice were sacrificed and biopsied in search of indications of pregnancy.
# [6] = individual treated IRS2−/− female mice, dihydrate
compound,measurement,setting,value
CCN(CC)CCOc1ccc(C(=C(Cl)c2ccccc2)c2ccccc2)cc1 [clomiphene citrate],pregnancy rate,[1],≤ 50%
same,restoring ovulation,[1],high percentage
"O.O.[Na+].[Na+].[O]=[W](=[O])([O-])[O-] [sodium tungstate, sodium tungstate dihydrate]","Body weight, Average",Body weight study; Day 0 (start of treatment),17.03 g
same,"Body weight, Average",Body weight study; Day 2,17.33 g
same,"Body weight, Average",Body weight study; Day 5,16.97 g
same,"Body weight, Average",Body weight study; Day 7,16.84 g
same,"Body weight, Average",Body weight study; Day 9,17.35 g
same,"Body weight, Average",Body weight study; Day 12,17.72 g
same,variation in body weight during administration,Body weight study,no variations are observed
same,variation in body weight during administration,Body weight study; listed as tungsten (VI) salt,does not modify
same,Body weight,Body weight study; Day 0 (start of treatment),22.7 g and 15.33 g and 18.21 g and 16.5 g and 13.99 g and 15.45 g
same,Body weight,Body weight study; Day 2,22.9 g and 14.84 g and 18.98 g and 17.01 g and 14.18 g and 16.04 g
same,Body weight,Body weight study; Day 5,22.61 g and 14.89 g and 18.2 g and 16.61 g and 13.79 g and 15.72 g
same,Body weight,Body weight study; Day 7,22.42 g and 15.07 g and 17.81 g and 16.35 g and 13.74 g and 15.66 g
same,Body weight,Body weight study; Day 9,22.85 g and 15.56 g and 17.9 g and 16.89 g and 14.5 g and 16.39 g
same,Body weight,Body weight study; Day 12,23.15 g and 15.91 g and 18.24 g and 17.19 g and 14.92 g and 16.89 g
same,phase of the estrous cycle,"IRS2−/− female mice [2]; day 7 of treatment, 2 mg/ml in drinking water (about 180 mg/kg/day)",M and E (4×) and E-M
same,phase of the estrous cycle,"IRS2−/− female mice [2]; day 8 of treatment, 2 mg/ml in drinking water",M and E-M (3×) and E (2×)
same,phase of the estrous cycle,"IRS2−/− female mice [2]; day 14 of treatment, 2 mg/ml in drinking water",E and E-M (3×) and D
same,phase of the estrous cycle,"IRS2−/− female mice [2]; day 15 of treatment, 2 mg/ml in drinking water",D and E (2×) and M (2×) and A
same,phase of the estrous cycle,"IRS2−/− female mice [2]; day 22 of treatment, 2 mg/ml in drinking water",D (2×) and A (2×) and M and P
same,"recovery of the estrous cycle, percentage of analyzed mice","IRS2−/− female mice [2]; infertile non-diabetic IRS2−/− female mice, on the seventh day of treatment",100%
same,circulating insulin levels,"[3]; rats with streptozotocin-induced insulinopenia and diabetes, prolonged treatment (10 weeks)",partially recover
same,percentage of births with respect to the number of positive curettages,"[3]; streptozotocin-diabetic females after 10 weeks of treatment, mated with healthy males (non-diabetic 100%)",66%
same,"glycemia, Average",[4]; Day 0 (start of treatment),128.17 mg/dL
same,"glycemia, Average",[4]; Day 2,117.33 mg/dL
same,"glycemia, Average",[4]; Day 5,122.33 mg/dL
same,"glycemia, Average",[4]; Day 7,118.83 mg/dL
same,"glycemia, Average",[4]; Day 9,125.17 mg/dL
same,"glycemia, Average",[4]; Day 12,118.83 mg/dL
same,variation in glycemia during administration,[4],no variations are observed
same,variation in glycemia during administration,[4]; listed as tungsten (VI) salt,does not modify
same,glycemia,"[4]; Day 0 (start of treatment), 6 h fasting",146 mg/dL and 129 mg/dL and 115 mg/dL and 126 mg/dL and 141 mg/dL and 112 mg/dL
same,glycemia,"[4]; Day 2, 6 h fasting",136 mg/dL and 128 mg/dL and 118 mg/dL and 110 mg/dL and 105 mg/dL and 107 mg/dL
same,glycemia,"[4]; Day 5, 6 h fasting",125 mg/dL and 142 mg/dL and 114 mg/dL and 111 mg/dL and 137 mg/dL and 105 mg/dL
same,glycemia,"[4]; Day 7, 6 h fasting",140 mg/dL and 110 mg/dL and 106 mg/dL and 89 mg/dL and 133 mg/dL and 135 mg/dL
same,glycemia,"[4]; Day 9, 6 h fasting",125 mg/dl (2×) and 153 mg/dl and 109 mg/dl and 108 mg/dl and 131 mg/dl
same,glycemia,"[4]; Day 12, 6 h fasting",136 mg/dL and 116 mg/dL and 111 mg/dL and 86 mg/dL and 123 mg/dL and 141 mg/dL
same,Pregnancy,"IRS2−/− female mice [5]; individual treated IRS2−/− female mice, mated with IRS2wt males, dihydrate",YES
same,Number of implanted embryos or young born (embryos),IRS2−/− female mice [5]; [6],7 embryos (3×) and 6 embryos
same,Number of implanted embryos or young born (young),IRS2−/− female mice [5]; [6],8 young (2×) and 1 young and 3 young
same,pregnancy rate,IRS2−/− female mice [5]; treated IRS2−/− female mice (untreated 9%),80%
same,mean number of young/implanted embryos per female mouse pregnancy,IRS2−/− female mice [5]; dihydrate,about 5
same,mean number of young/implanted embryos per female mouse pregnancy,"IRS2−/− female mice [5]; listed as tungsten (VI) salt, dihydrate",5
